Here are results for one compound from publication PMC7486443, “Generation of Phenothiazine with Potent Anti-TLK1 Activity for Prostate Cancer Therapy” (iScience, 2020).

The target of assay [1] is MAP4K4 (Homo sapiens, UniProt O95819). Kind of assay: biochemical. Particulars: KINOMEscan binding, percent of control; read-out: Table S4_SCANMAX REPORT - related to Fig. 1 / Percent Control. Details: DiscoverX KINOMEscan scanMAX competition binding panel, single concentration, percent of control; remaining binding: dose or concentration left out as unconfirmed. The source says: (§1) Certain PTH are potent inhibitors of TLK1 ([Ronald et al., 2013]), and by inference TLK2, as these proteins must homo- and hetero-dimerize for full activation ([Mortuza et al., 2018]), in addition to being highly similar in sequence and structure, and thus similarly targetable. […] Two noteworthy observations are that PTHs are structurally different from many known ATP competitive inhibitors, and that J54 was carefully designed based on considerations reported previously for the THD—the Kinomescan has confirmed that J54 is specific to TLKs. We should point out that although PTH were the first reported inhibitors of TLKs ([Ronald et al., 2013]), other inhibitors particularly of TLK2 have since been reported ([Kim et al., 2016]), some based on structure docking ([Mortuza et al., 2018]), although neither their potency and effects in vivo nor their potential off-target effects have not been reported as they were selected from libraries of kinase inhibitors. Supplementary file mmc2.xlsx: Table S4. SCANMAX Table, Related to Figure 1 Kinomescan of J54 inhibitory activity on human kinases.

For assay [2], the target named is FLT1 (Homo sapiens, UniProt P17948). Kind of assay: biochemical. Particulars: KINOMEscan binding, percent of control; read-out: Table S4_SCANMAX REPORT - related to Fig. 1 / Percent Control. Also noted: DiscoverX KINOMEscan scanMAX competition binding panel, single concentration, percent of control; remaining binding: dose or concentration left out as unconfirmed.
Text: as §1

The target in assay [3] is CSNK1D (Homo sapiens, UniProt P48730). Briefly: biochemical. Also noted: DiscoverX KINOMEscan scanMAX competition binding panel, single concentration, percent of control; remaining binding: dose or concentration left out as unconfirmed. To be noted: KINOMEscan binding, percent of control; read-out: Table S4_SCANMAX REPORT - related to Fig. 1 / Percent Control.
Text: as §1

The target of assay [4] is WNK2 (Homo sapiens, UniProt Q9Y3S1). Briefly: biochemical. Also noted: DiscoverX KINOMEscan scanMAX competition binding panel, single concentration, percent of control; remaining binding: dose or concentration left out as unconfirmed. To be noted: KINOMEscan binding, percent of control; read-out: Table S4_SCANMAX REPORT - related to Fig. 1 / Percent Control.
Text: as §1

Assay [5] deals with SLK (Homo sapiens, UniProt Q9H2G2). Briefly: biochemical. Details: DiscoverX KINOMEscan scanMAX competition binding panel, single concentration, percent of control; remaining binding: dose or concentration left out as unconfirmed. To be noted: KINOMEscan binding, percent of control; read-out: Table S4_SCANMAX REPORT - related to Fig. 1 / Percent Control.
Text: as §1

In assay [6] the target is T1, RSK4(Kin.Dom.2-C-terminal) (Homo sapiens, UniProt Q9UK32).
T1 construct: gene RPS6KA6; Kin.Dom.2-C-terminal
Briefly: biochemical. Also noted: DiscoverX KINOMEscan scanMAX competition binding panel, single concentration, percent of control; remaining binding: dose or concentration left out as unconfirmed. To be noted: KINOMEscan binding, percent of control; read-out: Table S4_SCANMAX REPORT - related to Fig. 1 / Percent Control.
Text: as §1

Assay [7] has as its target PRKCD (Homo sapiens, UniProt Q05655). Briefly: biochemical. Details: DiscoverX KINOMEscan scanMAX competition binding panel, single concentration, percent of control; remaining binding: dose or concentration left out as unconfirmed. To be noted: KINOMEscan binding, percent of control; read-out: Table S4_SCANMAX REPORT - related to Fig. 1 / Percent Control.
Text: as §1

In assay [8] the target is MAST1 (Homo sapiens, UniProt Q9Y2H9). Briefly: biochemical. Details: DiscoverX KINOMEscan scanMAX competition binding panel, single concentration, percent of control; remaining binding: dose or concentration left out as unconfirmed. Particulars: KINOMEscan binding, percent of control; read-out: Table S4_SCANMAX REPORT - related to Fig. 1 / Percent Control.
Text: as §1

The target in assay [9] is MAK (Homo sapiens, UniProt P20794). Kind of assay: biochemical. Details: DiscoverX KINOMEscan scanMAX competition binding panel, single concentration, percent of control; remaining binding: dose or concentration left out as unconfirmed. To be noted: KINOMEscan binding, percent of control; read-out: Table S4_SCANMAX REPORT - related to Fig. 1 / Percent Control.
Text: as §1

The target in assay [10] is EPHA4 (Homo sapiens, UniProt P54764). Kind of assay: biochemical. Details: DiscoverX KINOMEscan scanMAX competition binding panel, single concentration, percent of control; remaining binding: dose or concentration left out as unconfirmed. To be noted: KINOMEscan binding, percent of control; read-out: Table S4_SCANMAX REPORT - related to Fig. 1 / Percent Control.
Text: as §1

The target of assay [11] is T2, RSK1(Kin.Dom.2-C-terminal) (Homo sapiens, UniProt Q15418).
T2 construct: gene RPS6KA1; Kin.Dom.2-C-terminal
Kind of assay: biochemical. Particulars: KINOMEscan binding, percent of control; read-out: Table S4_SCANMAX REPORT - related to Fig. 1 / Percent Control. Details: DiscoverX KINOMEscan scanMAX competition binding panel, single concentration, percent of control; remaining binding: dose or concentration left out as unconfirmed.
Text: as §1

The target of assay [12] is SGK3 (Homo sapiens, UniProt Q96BR1). Kind of assay: biochemical. Also noted: DiscoverX KINOMEscan scanMAX competition binding panel, single concentration, percent of control; remaining binding: dose or concentration left out as unconfirmed. Particulars: KINOMEscan binding, percent of control; read-out: Table S4_SCANMAX REPORT - related to Fig. 1 / Percent Control.
Text: as §1

Assay [13] concerns the target EGFR(S752-I759del) (Homo sapiens, UniProt P00533, DEL752-759). Briefly: biochemical. Also noted: DiscoverX KINOMEscan scanMAX competition binding panel, single concentration, percent of control; remaining binding: dose or concentration left out as unconfirmed. Particulars: KINOMEscan binding, percent of control; read-out: Table S4_SCANMAX REPORT - related to Fig. 1 / Percent Control.
Text: as §1

Assay [14] concerns the target EGFR(T790M) (Homo sapiens, UniProt P00533, T790M). Kind of assay: biochemical. Also noted: DiscoverX KINOMEscan scanMAX competition binding panel, single concentration, percent of control; remaining binding: dose or concentration left out as unconfirmed. To be noted: KINOMEscan binding, percent of control; read-out: Table S4_SCANMAX REPORT - related to Fig. 1 / Percent Control.
Text: as §1

Assay [15] deals with PHKG1 (Homo sapiens, UniProt Q16816). Kind of assay: biochemical. To be noted: KINOMEscan binding, percent of control; read-out: Table S4_SCANMAX REPORT - related to Fig. 1 / Percent Control. Also noted: DiscoverX KINOMEscan scanMAX competition binding panel, single concentration, percent of control; remaining binding: dose or concentration left out as unconfirmed.
Text: as §1

Assay [16] concerns the target STK33 (Homo sapiens, UniProt Q9BYT3). Kind of assay: biochemical. Particulars: KINOMEscan binding, percent of control; read-out: Table S4_SCANMAX REPORT - related to Fig. 1 / Percent Control. Also noted: DiscoverX KINOMEscan scanMAX competition binding panel, single concentration, percent of control; dose or concentration left out as unconfirmed.
Text: as §1

Assay [17] concerns the target LTK (Homo sapiens, UniProt P29376). Briefly: biochemical. Details: DiscoverX KINOMEscan scanMAX competition binding panel, single concentration, percent of control; dose or concentration left out as unconfirmed. To be noted: KINOMEscan binding, percent of control; read-out: Table S4_SCANMAX REPORT - related to Fig. 1 / Percent Control.
Text: as §1

The target in assay [18] is DYRK1B (Homo sapiens, UniProt Q9Y463). Kind of assay: biochemical. Details: DiscoverX KINOMEscan scanMAX competition binding panel, single concentration, percent of control; dose or concentration left out as unconfirmed. Particulars: KINOMEscan binding, percent of control; read-out: Table S4_SCANMAX REPORT - related to Fig. 1 / Percent Control.
Text: as §1

Assay [19] concerns the target TTK (Homo sapiens, UniProt P33981). Briefly: Kinomescan SCANMAX panel at […]. The format is binding.

TTK, sequence (P33981 whole entry): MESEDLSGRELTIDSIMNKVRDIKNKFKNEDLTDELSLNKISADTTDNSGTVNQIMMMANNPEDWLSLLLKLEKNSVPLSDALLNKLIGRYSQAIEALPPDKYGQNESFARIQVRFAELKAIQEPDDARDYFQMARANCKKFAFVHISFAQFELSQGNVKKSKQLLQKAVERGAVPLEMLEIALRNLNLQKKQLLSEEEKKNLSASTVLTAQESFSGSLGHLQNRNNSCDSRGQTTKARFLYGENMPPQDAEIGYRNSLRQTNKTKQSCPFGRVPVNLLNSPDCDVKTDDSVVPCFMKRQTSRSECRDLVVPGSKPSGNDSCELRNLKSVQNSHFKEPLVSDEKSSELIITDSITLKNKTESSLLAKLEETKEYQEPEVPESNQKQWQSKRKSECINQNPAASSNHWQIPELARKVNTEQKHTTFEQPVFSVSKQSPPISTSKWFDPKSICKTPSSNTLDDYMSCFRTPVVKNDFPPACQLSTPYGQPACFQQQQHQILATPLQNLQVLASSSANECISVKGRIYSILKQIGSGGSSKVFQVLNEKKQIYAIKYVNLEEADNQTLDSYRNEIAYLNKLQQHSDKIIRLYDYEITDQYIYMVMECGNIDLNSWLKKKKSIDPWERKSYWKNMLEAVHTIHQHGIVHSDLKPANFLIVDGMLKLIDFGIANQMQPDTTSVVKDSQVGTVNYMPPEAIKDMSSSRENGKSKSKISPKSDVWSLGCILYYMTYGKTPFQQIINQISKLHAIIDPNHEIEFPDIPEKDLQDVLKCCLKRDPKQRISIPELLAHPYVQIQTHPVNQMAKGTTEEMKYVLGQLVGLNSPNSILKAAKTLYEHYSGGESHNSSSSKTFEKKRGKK
EGFR(T790M), sequence (P00533 whole entry T790M): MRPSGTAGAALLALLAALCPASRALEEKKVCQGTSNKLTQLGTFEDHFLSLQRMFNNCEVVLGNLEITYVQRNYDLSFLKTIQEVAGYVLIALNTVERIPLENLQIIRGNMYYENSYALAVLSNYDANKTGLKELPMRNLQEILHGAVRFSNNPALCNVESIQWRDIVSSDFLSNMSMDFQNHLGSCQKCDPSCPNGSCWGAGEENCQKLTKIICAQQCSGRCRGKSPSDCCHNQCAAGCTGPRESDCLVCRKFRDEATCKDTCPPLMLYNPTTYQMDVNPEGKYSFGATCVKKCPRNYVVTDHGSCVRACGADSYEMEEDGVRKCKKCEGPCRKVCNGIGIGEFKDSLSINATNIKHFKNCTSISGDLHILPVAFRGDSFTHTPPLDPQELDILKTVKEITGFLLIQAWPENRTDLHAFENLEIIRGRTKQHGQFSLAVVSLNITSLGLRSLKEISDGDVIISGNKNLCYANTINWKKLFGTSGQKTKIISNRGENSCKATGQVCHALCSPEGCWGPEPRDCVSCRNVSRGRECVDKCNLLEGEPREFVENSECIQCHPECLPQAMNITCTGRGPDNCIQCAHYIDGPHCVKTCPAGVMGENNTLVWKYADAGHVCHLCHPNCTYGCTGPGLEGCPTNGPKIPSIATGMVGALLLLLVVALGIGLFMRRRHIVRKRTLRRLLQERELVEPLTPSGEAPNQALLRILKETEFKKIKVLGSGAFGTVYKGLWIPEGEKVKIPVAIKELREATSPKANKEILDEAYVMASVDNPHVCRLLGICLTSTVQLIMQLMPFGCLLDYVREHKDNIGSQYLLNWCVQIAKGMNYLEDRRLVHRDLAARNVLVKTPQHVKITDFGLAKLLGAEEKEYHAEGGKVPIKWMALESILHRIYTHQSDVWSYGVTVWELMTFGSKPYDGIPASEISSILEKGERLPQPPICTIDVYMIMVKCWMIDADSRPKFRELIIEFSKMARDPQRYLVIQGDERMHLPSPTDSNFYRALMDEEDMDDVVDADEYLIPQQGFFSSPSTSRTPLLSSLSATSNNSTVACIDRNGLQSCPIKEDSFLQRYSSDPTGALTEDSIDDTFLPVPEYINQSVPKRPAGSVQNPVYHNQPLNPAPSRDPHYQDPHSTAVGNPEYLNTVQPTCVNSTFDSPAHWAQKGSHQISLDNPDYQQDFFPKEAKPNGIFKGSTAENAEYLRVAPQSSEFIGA
T2 sequence (Q15418 whole entry): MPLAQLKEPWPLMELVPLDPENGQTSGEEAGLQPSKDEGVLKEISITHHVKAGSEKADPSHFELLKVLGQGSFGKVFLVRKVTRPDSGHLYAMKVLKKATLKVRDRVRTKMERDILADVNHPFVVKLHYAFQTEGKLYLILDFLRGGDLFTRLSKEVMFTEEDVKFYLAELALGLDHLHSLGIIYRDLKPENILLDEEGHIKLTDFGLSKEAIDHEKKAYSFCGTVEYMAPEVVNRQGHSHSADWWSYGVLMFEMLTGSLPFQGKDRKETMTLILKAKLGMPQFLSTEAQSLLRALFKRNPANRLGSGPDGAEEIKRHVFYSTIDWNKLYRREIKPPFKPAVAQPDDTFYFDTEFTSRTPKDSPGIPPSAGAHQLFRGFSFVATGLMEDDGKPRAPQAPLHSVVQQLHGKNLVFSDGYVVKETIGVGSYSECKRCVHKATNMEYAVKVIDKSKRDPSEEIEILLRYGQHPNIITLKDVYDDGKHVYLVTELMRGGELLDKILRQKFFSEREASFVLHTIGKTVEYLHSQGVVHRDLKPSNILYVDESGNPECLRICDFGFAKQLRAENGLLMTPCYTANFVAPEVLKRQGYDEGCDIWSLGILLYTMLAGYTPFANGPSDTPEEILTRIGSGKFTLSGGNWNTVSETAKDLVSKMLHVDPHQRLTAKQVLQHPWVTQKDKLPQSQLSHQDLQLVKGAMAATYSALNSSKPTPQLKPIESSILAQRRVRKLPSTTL
STK33, sequence (Q9BYT3 whole entry): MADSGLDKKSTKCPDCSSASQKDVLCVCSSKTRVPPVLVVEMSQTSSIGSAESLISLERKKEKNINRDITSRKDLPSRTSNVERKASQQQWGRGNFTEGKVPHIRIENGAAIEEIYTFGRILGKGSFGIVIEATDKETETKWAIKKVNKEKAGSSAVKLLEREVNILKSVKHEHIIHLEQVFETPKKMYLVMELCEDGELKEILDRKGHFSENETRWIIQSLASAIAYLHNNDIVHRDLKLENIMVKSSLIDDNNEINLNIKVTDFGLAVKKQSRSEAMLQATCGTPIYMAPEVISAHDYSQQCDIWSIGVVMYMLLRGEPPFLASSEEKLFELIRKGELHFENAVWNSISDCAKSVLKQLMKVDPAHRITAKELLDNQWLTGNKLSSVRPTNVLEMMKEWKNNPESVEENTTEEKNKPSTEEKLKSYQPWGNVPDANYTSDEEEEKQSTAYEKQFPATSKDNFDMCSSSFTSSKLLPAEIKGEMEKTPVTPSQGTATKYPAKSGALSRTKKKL
PRKCD, sequence (Q05655 whole entry): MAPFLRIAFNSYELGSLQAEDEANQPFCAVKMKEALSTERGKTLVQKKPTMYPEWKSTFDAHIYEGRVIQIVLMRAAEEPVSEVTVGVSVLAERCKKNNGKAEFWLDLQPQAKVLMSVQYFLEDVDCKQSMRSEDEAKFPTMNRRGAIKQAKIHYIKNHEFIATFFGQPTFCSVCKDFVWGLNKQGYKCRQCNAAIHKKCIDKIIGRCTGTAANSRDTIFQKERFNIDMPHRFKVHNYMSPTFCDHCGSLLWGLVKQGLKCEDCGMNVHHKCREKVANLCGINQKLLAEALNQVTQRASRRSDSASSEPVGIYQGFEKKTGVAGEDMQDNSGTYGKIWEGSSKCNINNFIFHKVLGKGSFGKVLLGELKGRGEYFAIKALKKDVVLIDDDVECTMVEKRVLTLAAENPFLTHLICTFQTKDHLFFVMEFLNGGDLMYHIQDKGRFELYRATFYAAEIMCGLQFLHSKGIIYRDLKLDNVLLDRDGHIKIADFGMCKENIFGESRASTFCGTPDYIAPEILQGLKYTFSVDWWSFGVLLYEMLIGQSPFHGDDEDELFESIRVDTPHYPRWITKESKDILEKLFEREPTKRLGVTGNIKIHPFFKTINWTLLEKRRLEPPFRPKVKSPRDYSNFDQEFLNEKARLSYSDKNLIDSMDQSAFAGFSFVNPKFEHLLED
DYRK1B, sequence (Q9Y463 whole entry): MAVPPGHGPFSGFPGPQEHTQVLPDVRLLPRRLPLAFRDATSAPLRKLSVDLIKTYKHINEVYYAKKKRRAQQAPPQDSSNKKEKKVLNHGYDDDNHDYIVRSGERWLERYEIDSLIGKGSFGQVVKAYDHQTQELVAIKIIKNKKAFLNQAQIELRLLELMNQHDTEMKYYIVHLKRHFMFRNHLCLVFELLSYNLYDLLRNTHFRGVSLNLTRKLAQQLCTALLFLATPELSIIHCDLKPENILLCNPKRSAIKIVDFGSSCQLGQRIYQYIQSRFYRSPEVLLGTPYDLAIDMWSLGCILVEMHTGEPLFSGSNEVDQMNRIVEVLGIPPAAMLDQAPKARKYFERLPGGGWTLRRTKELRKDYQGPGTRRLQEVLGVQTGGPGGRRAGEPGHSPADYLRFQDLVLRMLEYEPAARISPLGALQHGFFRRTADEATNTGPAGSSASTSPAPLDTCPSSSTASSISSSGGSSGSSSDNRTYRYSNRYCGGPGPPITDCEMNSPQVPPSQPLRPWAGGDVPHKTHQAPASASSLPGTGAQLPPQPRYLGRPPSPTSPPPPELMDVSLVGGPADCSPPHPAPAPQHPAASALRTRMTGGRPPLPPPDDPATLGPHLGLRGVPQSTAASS
PHKG1, sequence (Q16816 whole entry): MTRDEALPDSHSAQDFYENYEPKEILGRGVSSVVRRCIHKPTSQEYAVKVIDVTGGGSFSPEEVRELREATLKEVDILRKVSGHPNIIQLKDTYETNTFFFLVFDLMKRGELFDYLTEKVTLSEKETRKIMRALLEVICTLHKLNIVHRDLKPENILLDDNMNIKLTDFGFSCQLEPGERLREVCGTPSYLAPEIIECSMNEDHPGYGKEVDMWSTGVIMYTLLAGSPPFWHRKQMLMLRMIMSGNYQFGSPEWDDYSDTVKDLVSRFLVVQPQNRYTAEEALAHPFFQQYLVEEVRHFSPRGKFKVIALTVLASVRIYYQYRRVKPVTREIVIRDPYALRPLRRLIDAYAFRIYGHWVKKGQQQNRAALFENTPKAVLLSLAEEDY

Take `c1ccc2c(c1)Sc1ccccc1N2CCN1CCOCC1` [J54]: the remaining binding in assay [1] came to 66%; in assay [2], 98%; in assay [3], 95%; in [4], 100%; in [5], 100%; in [6], 99%. The remaining binding in [7] turned out to be 100%; in assay [8] it was 100%; in [9], 31%; in [10], 100%; in assay [11], 100%; in [12] it was 94%. Moreover, the remaining binding is 94% in [13]; 96% in [14]; 100% in [15]; 100% in assay [16]; 100% in assay [17]; 54% in [18]. Also, the “Kinomescan SCANMAX panel at 15 μM” value in [19] is given as “little inhibition of all other kinases with the exception of TTK”.
